Source: PubChem BioAssay AID2055 (NMMLSC, 2009)

Each compound was assayed against Ras-related C3 botulinum toxin substrate 1 (Homo sapiens) (UniProt P63000) (assay: blockers of fluorescent GTP loading onto wildtype Rac1 – biochemical, pyrazoline analogs, multiplex, flow cytometry, Ki, SAR follow-up (AID 2055)). Settings: Rac1-GST beads, Bodipy-FL-GTP binding, Ki calculated from EC50.

Row | SMILES | Ki
1 | O=C(O)c1ccc(N2N=C(c3ccccc3)CC2c2ccccc2)cc1 (stereo unspecified) | 5.11 µM
2 | Brc1ccc(N2N=C(c3ccccc3)CC2c2ccccc2)cc1 (stereo unspecified) | 0.89 µM
3 | COc1ccc(C2CC(c3ccccc3)=NN2c2ccc(S(N)(=O)=O)cc2)cc1OC (stereo unspecified) | 1.24 µM
4 | CN(C)c1ccc(C2CC(c3ccccc3)=NN2c2ccc([N+](=O)[O-])cc2)cc1 (stereo unspecified) | 1.9 µM
5 | COc1ccc(C2CC(c3ccc(F)cc3)=NN2c2cc(Cl)ccc2Cl)cc1 (stereo unspecified) | 0.01 µM
6 | CC(=O)Oc1ccc(C2=NN(c3ccccc3)C(c3ccccc3)C2)cc1 (stereo unspecified) | 0.53 µM
